Measurements reported in patent US5919770A, “Metabolites of ginseng saponins by human intestinal bacteria and its preparation for an anticancer” (Il Hwa Co., Ltd., priority 1996, dated 1999).

Experiments:
[1] = test system: cancer cells; details: Japanese Patent No. 93-9123, Sato et al. 1994; cited from earlier work
[2] = test system: bovine artery endotheliocyte (BAE); experiment: Inhibition on the proliferation of bovine artery endotheliocyte (BAE), MTT; assay type: cell-based; details: for IC50: Bos taurus, BAE, 72 hours, MTT; for IC50 (C)/IC50 (BAE), C = HL: ratio IC50 (HL)/IC50 (BAE); for IC50 (C)/IC50 (BAE), C = K562: ratio IC50 (K562)/IC50 (BAE)
Experimental: (§1) Inhibition on the vascularization of tumor (Test for the inhibition on the proliferation)
(§2) Human lymphocyte (HL), leukemia cell line (K562) and bovine artery endotheliocyte (BAE) were used for this experiment. HL (1×10^5 cells), leukemia cell line (K562) (2×10^5 cells) and BAE (5×10^3 cells) were cultured in a medium (HL, K562: RPMI 1640 medium containg 10% fetal bovine, BAE: DMEM medium containing 10% fetal bovine) containing intestinal flora metabolites of ginseng saponin concentrated with 2-fold dilution in 5% CO2 saturated with steam (HL, K562: 24 hours, BAE: 72 hours). The number of each survived cell was purified by MTT method to calculate 50% inhibition concentration (IC50), impaired rate of cells (IC50 (HL)/IC50 (BAE) and IC50 (K562)/IC50 (BAE).

[3] = Toxicity in animal experiments with rats and mice
[4] = test system: leukemia cell line (P388); experiment: Antitumor activity of mouse spleen lymphocytes on leukemia cell line P388 (MTT); assay type: cell-based, mice; details: for activity at 2.5 µM: P388, 2.5 μM for 16 hours (Compound K 1.56, Compound Y 1.86, Ginsenoside Mc 1.86, 20(S)-protopanaxatriol 1.19 μg/ml), control 31.3%; for fold induction at 2.5 µM: P388, 16 h, read-out: Antitumor activity, times as high as control
Experimental: Antitumor activity on leukemia cell line (P388) in lymphocyte of mice
Spleen lymphocytes of mice and leukemia cell line (P388) were used for this experiment. Spleen lymphocytes (4×10^6 cells) and leukemia cells (P388) (2×10^8 cells) were cultured in a medium (RPMI 1640 supplemented with 20 μM mercaptoethanol and 10% fetal bovine serum) containing intestinal flora metabolite of ginseng saponin (2.5 μM) in 5% CO2 saturated with steam for 16 hours. Aside from this, same numbers of spleen lymphocytes or leukemia cell line were cultured in a medium containing intestinal flora metabolite of ginseng saponin in same is concentration as a control. The number of each survived cell was purified by MTT method to calculate impaired rate of cells on leukemia cells (P388) of lymphocytes.

[5] = test system: bovine artery endotheliocyte (BAE); experiment: Inhibition on the migration of bovine artery endotheliocyte (vascularization of tumor); assay type: cell-based; details: for Migration-inhibition (% control), IC10: at the 10% inhibitory concentration (IC10); for Migration-inhibition (% control), IC10 / Migration-inhibition (% control), IC50: 24 hours; for Migration-inhibition (% control), IC50: at the 50% inhibitory concentration (IC50)
Experimental: Inhibition on the vascularization of tumor (Test for the inhibition on the migration)
Bovine artery endotheliocyte (BAE) was used for this experiment. BAE (5×10^3 cells) was cultured in 6-well plate for 24 hours and cells attached to the plate were detached by a razor. Said medium was replaced by a new one and after one hour, a solution of intestinal flora metabolite of ginseng saponin was added to the desired inhibitory concentration of 10% and 50%, respectively for 24-hour cultivation. After completing the cultivation, cells were fixed with methanol, stained with Giemsa method and counted the cells migrated from the detached line under microscope.

[6] = test system: Human lymphocyte (HL); experiment: Inhibition on the proliferation of human lymphocyte (HL), MTT; assay type: cell-based; details: 24 hours
Experimental: as §1, §2

[7] = test system: Human adenosarcoma tissue cell (HT1080); experiment: Inhibition on the extravasation of basement membrane (haptoinvasion, matrigel/FN filter); assay type: cell-based; details: for IC50 / inhibition at 1 µM / inhibition at 10 µM / inhibition at 100 µM / inhibition at 1000 µM: Homo sapiens; for IC50: HT-1080, 4 h, 50% inhibition of extravasation, read-out: ED50 (50% extravasation-inhibitory concentration); for inhibition at 1 µM / inhibition at 10 µM / inhibition at 100 µM / inhibition at 1000 µM: HT-1080, read-out: Inhibition rate (%)
Experimental: Inhibition on the extravasation of basement membrane
The transwell culture chamber was used for this experiment with a haptoinvasion method (reference: Cancer Res., 47, 3239, (1987)). The lower side of a filter having a hole of 8.0 μm in diameter was coated with 5 μg of matrigel for the fabrication of matrigel/FN filter. Human […] tissue cell (HT1080), treated in the intestinal flora metabolite of ginseng saponin in a concentration of 1-1000 μM at 37° C. for 30 minutes, was charged to the upper side of each filter with 1×10^5 cells/100 μL. Then, said filters were added to 24-well plate having 600 μL of MEM medium supplemented with 0.1% bovine serum albumin and them cultured for 4-hour cultivation. After completing the cultivation, cells were fixed with methanol and stained with hematoxylin, a tissue staining agent. Following the removal of cells at the upper side with a cotton pole, cells infiltrating into the lower side were counted under microscope.

[8] = test system: leukemia cell line (K562); experiment: Inhibition on the proliferation of leukemia cell line K562, MTT; assay type: cell-based; details: for IC50: Homo sapiens, K562, 24 hours, MTT; for inhibitory activities on the proliferation of tumor cells: in words
Experimental: as §1, §2

[9] = test system: liver cancer cells; details: Japanese Patent No. 89-28759; cited from earlier work

| SMILES | IC50 [2] [µM] | IC50 (C)/IC50 (BAE), C = HL [2] | IC50 (C)/IC50 (BAE), C = K562 [2] | activity at 2.5 µM [4] [%] | fold induction at 2.5 µM [4] | Migration-inhibition (% control), IC10 [5] [% control] | Migration-inhibition (% control), IC50 [5] [% control] | IC50 [6] [µM] | No. of infiltrated cancer cell/field ([7]; 1 μM) [cell/field] | No. of infiltrated cancer cell/field ([7]; 10 μM) [cell/field] | No. of infiltrated cancer cell/field ([7]; 100 μM) [cell/field] | No. of infiltrated cancer cell/field ([7]; 1000 μM) [cell/field] | IC50 [7] [µM] | inhibition at 10 µM ([7]; 10 μM) [%] | inhibition at 100 µM ([7]; 100 μM) [%] | inhibition at 1000 µM ([7]; 1000 μM) [%] | IC50 [8] [µM] | further results |
| --- | --- | --- | --- | --- | --- | --- | --- | --- | --- | --- | --- | --- | --- | --- | --- | --- | --- | --- |
| CC(C)=CCC[C@@](C)(O)[C@H]1CC[C@]2(C)[C@@H]1[C@H](O)C[C@@H]1[C@@]3(C)CC[C@H](O[C@@H]4O[C@H](CO)[C@@H](O)[C@H](O)[C@H]4O[C@@H]4O[C@H](CO)[C@@H](O)[C@H](O)[C@H]4O)C(C)(C)[C@@H]3CC[C@]12C [ginsenoside Rg3, 3-0-[β-D-glucopyranosyl(1→2)-β-D-glucopyranosyl]-20(R)-protopanaxadiol] | – | – | – | – | – | – | – | – | – | – | – | – | – | – | – | – | – | inhibition of vascularization of tumors, extravasation and metastasis of cancer cells [1]: inhibit the vascularization of tumors and extravasation of cancer cells including inhibitory actions on the metastatis of cancer cells |
| CC(C)=CCC[C@](C)(O[C@@H]1O[C@H](CO[C@@H]2O[C@@H](CO)[C@H](O)[C@H]2O)[C@@H](O)[C@H](O)[C@H]1O)[C@H]1CC[C@]2(C)[C@@H]1[C@H](O)C[C@@H]1[C@@]3(C)CC[C@H](O)C(C)(C)[C@@H]3CC[C@]12C [Ginsenoside Mc, 20-0-[α-L-arabinofuranosyl(1→6)-β-D-glucopyranosyl-20(S)-protopanaxadiol]] | 26 | 8.5 | 18 | 63.3 | 2 | -1.6 | 30.0 | 220 | 114 ± 12 | 44 ± 7 | 3 ± 1 | 0 | 7.6 | 62 | 97 | 100 | 480 | toxicity [3]: nearly negligible; inhibition at 1 µM ([7]; 1 μM): 3%; inhibitory activities on the proliferation of tumor cells [8]: exhibited inhibitory activities on the proliferation of tumor cells |
| CC(C)=CCC[C@](C)(O)[C@H]1CC[C@]2(C)[C@@H]1[C@H](O)C[C@@H]1[C@@]3(C)CC[C@H](O[C@@H]4O[C@H](CO)[C@@H](O)[C@H](O)[C@H]4O)C(C)(C)[C@@H]3CC[C@]12C [ginsenoside Rh2, 3-0-β-D-glucopyranosyl-20(s)-protopanaxadiol] | – | – | – | – | – | – | – | – | – | – | – | – | – | – | – | – | – | inhibition of the proliferation of liver cancer cells [9]: inhibit the proliferation of liver cancer cells |
| CC(C)=CCC[C@](C)(O[C@@H]1O[C@H](CO[C@@H]2OC[C@H](O)[C@H](O)[C@H]2O)[C@@H](O)[C@H](O)[C@H]1O)[C@H]1CC[C@]2(C)[C@@H]1[C@H](O)C[C@@H]1[C@@]3(C)CC[C@H](O)C(C)(C)[C@@H]3CC[C@]12C [Compound Y, 20-0-[α-L-arabinopyranosyl (1→6)-β-D-glucopyranosyl]-20(S)-protopanaxadiol] | 32 | 2.6 | 2.6 | 56.6 | 1.8 | -3.7 | 28.9 | 83 | 125 ± 7 | 92 ± 11 | 24 ± 2 | 0 | 31 | 21 | 62 | 100 | 78 | – |
| Cc1ccc(C(=O)Nc2ccc(S(=O)(=O)O)c3cc(S(=O)(=O)O)cc(S(=O)(=O)O)c23)cc1NC(=O)c1cccc(NC(=O)Nc2cccc(C(=O)Nc3cc(C(=O)Nc4ccc(S(=O)(=O)O)c5cc(S(=O)(=O)O)cc(S(=O)(=O)O)c45)ccc3C)c2)c1 [Suramin, reference compound] | – | – | – | – | – | -3.8 | 37.1 | – | – | – | – | – | – | – | – | – | – | – |
| CC(C)=CCC[C@](C)(O[C@@H]1O[C@H](CO[C@@H]2OC[C@H](O)[C@H](O)[C@H]2O)[C@@H](O)[C@H](O)[C@H]1O)[C@H]1CC[C@]2(C)[C@@H]1[C@H](O)C[C@@H]1[C@@]3(C)CC[C@H](O[C@@H]4O[C@H](CO)[C@@H](O)[C@H](O)[C@H]4O[C@@H]4O[C@H](CO)[C@@H](O)[C@H](O)[C@H]4O)C(C)(C)[C@@H]3CC[C@]12C [ginsenoside Rb2] | – | – | – | – | – | – | – | – | – | – | – | – | – | – | – | – | – | inhibition of vascularization of tumors, extravasation and metastasis of cancer cells [1]: inhibit the vascularization of tumors and extravasation of cancer cells including inhibitory actions on the metastatis of cancer cells |
| CC(C)=CCC[C@](C)(O)[C@H]1CC[C@]2(C)[C@@H]1[C@H](O)C[C@@H]1[C@@]3(C)CC[C@H](O)C(C)(C)[C@@H]3[C@@H](O)C[C@]12C [20(S)-protopanaxatriol] | 36 | 7.8 | 1.4 | 82.4 | 2 | -1.6 | 30.0 | 280 | 103 ± 14 | 93 ± 7 | 18 ± 4 | 1 ± 1 | 48 | 4 | 81 | 99 | 49 | inhibitory activities on the proliferation of tumor cells [8]: exhibited inhibitory activities on the proliferation of tumor cells |
| CC(C)=CCC[C@](C)(O[C@@H]1O[C@H](CO)[C@@H](O)[C@H](O)[C@H]1O)[C@H]1CC[C@]2(C)[C@@H]1[C@H](O)C[C@@H]1[C@@]3(C)CC[C@H](O)C(C)(C)[C@@H]3CC[C@]12C [Compound K] | 28 | 1.7 | 1.6 | 51.5 | 1.6 | 4.6 | 43.2 | 45 | 73 ± 4 | 45 ± 9 | 0 | – | 3.2 | 62 | 100 | – | 26 | inhibitory activity of migration ([5]; in words, control Suramin): more potent inhibitory activity of migration than Suramin; inhibition at 1 µM ([7]; 1 μM): 38% |
